Patent publication US9498465B2, “Topical compositions in the form of a gel containing a particular solubilized retinoid” (GALDERMA RESEARCH & DEVELOPMENT, priority 2012, dated 2016)

Legend:
Format in all cases: physicochemical
[1] = Maximum solubility in hydrophilic excipients, determined by HPLC
Description: In order to produce an aqueous-glycolic gel containing an amount of ethanol of less than 30%, in which compound A is solubilized, pre-formulation studies were carried out in order to reveal the excipients enabling good solubilization and also good stability of the active agent. • (1) List of the hydrophilic excipients or mixture of hydrophilic excipients in which maximum solubility was determined by HPLC: […]

[2] = Stability of compound A in its principal solvents and cosolvents, determined by HPLC
[3] = Tests introducing ST-cyclomethicone 5NF: recrystallization of compound A
Description: In order to obtain an acceptable feel for acne (non-greasy, non-tacky) while at the same time keeping good solubility of compound A in the formula, tests introducing ST-cyclomethicone 5 were carried out, in the knowledge that ST-cyclomethicone 5NF is a nonsolvent of compound A and that this addition may therefore cause recrystallization of compound A: […]

For CC(C)(C)c1cc(-c2cc(-c3ccc(C(=O)O)cc3)ccc2OCCO)ccc1N1CCCC1 [Compound A, 3″-tert-butyl-4′-(2-hydroxyethoxy)-4″-pyrrolidin-1-yl[1,1′;3′,1″]terphenyl-4-carboxylic acid], the “Maximum solubility as %” value ([1]; in Arlasolve DMI (Dimethyl Isosorbide)) was 0.4%, the “Maximum solubility as %” value ([1]; in Benzyl Alcohol) was 2.3880% and the “Maximum solubility as %” value ([1]; in Dipropylene Glycol Care (Dipropylene Glycol)) was 0.4%. The “Maximum solubility as %” value ([1]; in Ethanol 95-96%) was 0.92%, the “Maximum solubility as %” value ([1]; in Glycerine (Glycerin)) was 0.002% and the “Maximum solubility as %” value ([1]; in Hexylene Glycol) was 0.4%. The “Maximum solubility as %” value ([1]; in Hydrolite 5P (Pentylene glycol)) was 0.482%, the “Maximum solubility as %” value ([1]; in PEG 400 (Peg-8)) was 1.52% and the “Maximum solubility as %” value ([1]; in Pharmasolve (Methyl Pyrolidone)) was 4.84%. For the same compound, the “Maximum solubility as %” value ([1]; in Phenoxetol (Phenoxyethanol)) was 1.957%, the “Maximum solubility as %” value ([1]; in Propylene Glycol) was 0.111% and the “Maximum solubility as %” value ([1]; in Transcutol (Ethoxy diglycol)) was 4.17%. For the same compound, the “Solubility (in words)” value ([1]; in glycerine) was “virtually insoluble”, the Stability results ([2]; 0.001% in Hexylene Glycol) was “Unstable” and the Stability results ([2]; 0.005% in Ethanol 95-96%) was “Stable”. The Stability results ([2]; 0.005% in Ethanol 95-96%, listed as compound A) was “stable”, the Stability results ([2]; 0.01% in Benzyl Alcohol) was “Unstable” and the Stability results ([2]; 0.03% in Arlasolve DMI (Dimethyl Isosorbide)) was “Unstable”. For the same compound, the Stability results ([2]; 0.03% in Hydrolite 5P (Pentylene glycol)) was “Unstable”, the Stability results ([2]; 0.03% in Pharmasolve (Methyl Pyrolidone)) was “Unstable” and the Stability results ([2]; 0.03% in Transcutol (Ethoxy diglycol)) was “Unstable”. The Stability results ([2]; 0.05% in Phenoxetol (Phenoxyethanol)) was “Stable”, the Stability results ([2]; 0.05% in Phenoxetol (Phenoxyethanol), listed as compound A) was “stable” and the Stability results ([2]; 0.05% in Propylene Glycol, listed as COMPOUND A) was “Stable”. The Stability results ([2]; 0.05% in Propylene Glycol, listed as compound A) was “stable”, the Stability results ([2]; 0.3% in Dipropylene Glycol Care (Dipropylene Glycol), listed as COMPOUND A) was “Stable” and the Stability results ([2]; 0.3% in Dipropylene Glycol Care (Dipropylene Glycol), listed as compound A) was “stable”. The Stability results ([2]; 0.3% in PEG 400 (Poly Ethylene Glycol)) was “Unstable”, the “Recrystallization of COMPOUND A” value ([3]; formula with ST-Cyclomethicone 5NF 0%) was “No” and the “Recrystallization of COMPOUND A” value ([3]; formula with ST-Cyclomethicone 5NF 2%) was “No”. For the same compound, the “Recrystallization of COMPOUND A” value ([3]; formula with ST-Cyclomethicone 5NF 5%) was “Re-” and the “Solubility (in words)” value ([3]; in ST-cyclomethicone 5NF) was “nonsolvent”.
